Assay results published in article PMC4977052, “On the Utility of ToxCast™ and ToxPi as Methods for Identifying New Obesogens” (Environmental Health Perspectives, 2016).
Read-outs that look alike come from different tables or passages of the source.

Columns and labels:
GAL4-mPPARγ = biological target: T1, GAL4-mPPARγ (Mus musculus, UniProt P37238); test: GAL4-mPPARγ activation, transient transfection luciferase reporter in COS7 cells; format: cell-based; details: for Activation COS7 (result in words), ToxPi chemicals: PPARγ or RXRα activation assays (Table 2)
T1 construct: expressed in transfected cells; host or cells: COS7
T1 sequence (P37238 with tags, fused parts or gaps limits assumed): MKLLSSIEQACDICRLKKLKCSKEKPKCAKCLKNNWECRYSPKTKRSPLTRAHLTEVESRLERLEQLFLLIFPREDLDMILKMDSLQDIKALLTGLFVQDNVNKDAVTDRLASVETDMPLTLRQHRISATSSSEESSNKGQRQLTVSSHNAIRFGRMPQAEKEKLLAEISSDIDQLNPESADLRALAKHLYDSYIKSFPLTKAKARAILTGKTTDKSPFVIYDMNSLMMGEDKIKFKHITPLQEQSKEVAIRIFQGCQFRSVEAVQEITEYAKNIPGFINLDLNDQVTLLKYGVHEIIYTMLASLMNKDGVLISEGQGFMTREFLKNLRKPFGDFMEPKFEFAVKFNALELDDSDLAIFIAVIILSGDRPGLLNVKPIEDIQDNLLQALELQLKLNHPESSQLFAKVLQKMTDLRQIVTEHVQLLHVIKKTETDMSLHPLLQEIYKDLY
Method: pCMX-Gal4, pCMX-Gal4-mPPARγ, and pCMX-Gal4-hRXRα were previously described ([Grün et al. 2006]). Transient transfections were performed in COS7 cells as described ([Chamorro-García et al. 2012]). Briefly, COS7 cells were seeded at 15,000 cells per well in 96-well tissue culture plates in 10% calf bovine serum. The following day, cells were transfected in Opti-MEM at ~ 90% confluency. One microgram of CMX-GAL4 effector plasmid was co-transfected with 5 μg tk-(MH100)4-luciferase reporter and 5 μg of CMX-β-galactosidase transfection control plasmids in Opti-MEM® using Lipofectamine® 2000 reagent (Invitrogen™ Life Technologies, Carlsbad, CA, USA), following the manufacturer’s recommended protocol. All chemicals were solvated in dimethyl sulfoxide (DMSO). After overnight incubation, the medium was replaced with Dulbecco’s Modified Eagle Medium (DMEM; HyClone, Logan, UT, USA), 10% resin charcoal stripped fetal bovine serum (FBS) plus ligands at concentrations indicated in the figure legends for an additional 24 hr. DMSO concentration was maintained at 0.05% across all chemical treatments. Cells were lysed and assayed for luciferase and β-galactosidase activity as previously described ([Forman et al. 1995]). All transfections were performed in triplicate and reproduced in multiple experiments. Data are reported as fold induction or reduction over vehicle ([…]) controls ± SEM (standard error of the mean) using standard propagation of error ([Bevington and Robinson 2003]). […] The EC50, EC10, IC50, and IC10 values from NCGC and ToxCast™ are reported from gain AC50 and AC10 values in the ToxCast™ 2014 release ([Filer et al. 2014]).
Figure 1 ToxCast™ Chemical Activity on PPARγ. The ability of a graded dose series of ToxCast™ chemicals to (A) activate or (B) antagonize GAL4-mPPARγ was tested in transiently transfected COS7 cells. (A, B) Data points are averages of triplicate transfections (three biological replicates). […] Data are depicted as (A) fold induction or (B) reduction over vehicle (0.05% DMSO) controls ± SEM. (A) ToxCast™ chemicals were tested in 3-fold serial dilutions from 100 μM through 0.137 μM, with the final data point being 0.05% DMSO. Rosiglitazone serves as a positive control activator. (B) ToxCast™ chemicals were tested in 3-fold serial dilutions from 100 μM, in competition with 50 nM rosiglitazone (Rosi). […] (C) EC50, EC10, IC50, and IC10 values calculated from A and B are reported and compared to commercial assays (see Figure S1). Note: ATG, Attagene GAL-PPARγ activation assay; NCGC, GeneBLAzer® agonist (EC values) or antagonist (IC values) assays. Triphenyltin was previously published ([Kanayama et al. 2005]).
Figure 4 ToxPi Chemical Activity on PPARγ and RXRα. The ability of a graded dose series of ToxPi chemicals to activate (A) GAL4-mPPARγ or (B) GAL4-hRXRα was tested in transiently transfected COS7 cells. (A, B) Data points are averages of triplicate transfections (three biological replicates). […] ToxPi chemicals were tested in 3-fold serial dilutions from 100 μM through 0.137 μM, with the final data point being 0.05% DMSO. Data are depicted as fold induction over vehicle (0.05% DMSO) controls ± SEM. (A) Rosiglitazone serves as a positive control activator for GAL4-mPPARγ. (B) LG100268 (2-[1-(3,5,5,8,8-Pentamethyl-5,6,7,8-tetrahydro-2-naphthyl)cyclopropyl]pyridine-5-carboxylic acid) serves as a positive control activator for GAL4-hRXRα. (C) EC50 and EC10 values calculated from A and B are reported and compared to other assays (see Figure S1). ATG, Attagene GAL-PPARγ or GAL-RXRα activation assay; NCGC, GeneBLAzer® GAL-PPARγ or GAL-RXRα activation assays. Triphenyltin was previously published ([Kanayama et al. 2005]).

PPARγ [1] = details: cited from earlier work
Human PPARγ = details: cited from earlier work
PPARγ [2] = details: ToxCast 2014 release, ref Filer et al. 2014, cited from earlier work
3T3-L1 preadipocytes = test: 3T3-L1 adipogenesis assay (lipid accumulation, adipogenic gene expression); format: cell-based; details: 0.02-20 μM, 5 days after MDI induction
Method: 3T3-L1 cells (ATCC) were maintained in high-glucose DMEM supplemented with 10% fetal bovine serum, 2 mM L-glutamine, 50 IU/mL penicillin, and 50 μg/mL streptomycin. A total of 2 × 10^4 cells per well were seeded in 12-well plates. After 48 hr, cells were exposed to the adipogenic cocktail MDI (500 μM isobutylmethylxanthine, 0.25 nM dexamethasone and 5 μg/mL insulin), 8 μg/mL biotin and 8 μg/mL pantothenate for 2 days. Induction media was removed and cells were exposed to test chemicals during 5 days, replacing the media every 2 days. Rosiglitazone (ROSI) and tributyltin (TBT) were used as positive controls at 100 nM and 50 nM final concentrations, respectively. All ToxCast™ chemicals were tested at 0.02, 0.2, 2, and 20 μM, and DMSO concentration was maintained at 0.1% across all treatments. If the chemical was toxic at 20 μM, we repeated the experiment at 10 μM.
Cells were either fixed in 3.7% formaldehyde in phosphate-buffered saline (PBS) for 30 min at room temperature (RT) for lipid quantitation, or homogenized in TriPure (Roche, Mannheim, Germany) for gene expression analysis. For lipid quantitation, fixed cells were washed twice with PBS and maintained in PBS overnight at 4°C to release residual phenol red. Background of cells were measured prior to staining. Cells were stained with 1 μg/mL Nile red (CAS No. 7385-67-3) (to detect lipid accumulation) and 1 μg/mL Hoechst 33342 (ThermoFisher Scientific) (to detect nuclei as a surrogate for cell number) in PBS for 15 min in the dark at RT and washed twice with PBS. […] Background values of Hoechst and Nile red were subtracted from the RFUs after staining and the ratio RFUNile Red:RFUHoechst was calculated. Data are represented as mean ± SEM. Total RNA was isolated using TriPure (Roche) as recommended by the manufacturer. Reverse transcription and quantitative real-time RT-PCR (QPCR) were performed using Transcriptor RT and SYBR® Green Master Mix (Roche). cDNA was quantitated in a LightCycler® 480 System (Roche Diagnostics, Basel, Switzerland) using primer sets listed in Table S4. Each primer set amplified a single band as determined by gel electrophoresis and melting curve analysis. QPCR data were analyzed using the 2^ΔΔCt method ([Livak and Schmittgen 2001]) relative to ribosomal protein 36b4, normalizing to 0.1% DMSO vehicle. Error bars represent the SEM from four to six biological replicates calculated using standard propagation of error ([Bevington and Robinson 2003]).

[3] = ToxCast 2014 release, ref Filer et al. 2014, read-out: Attagene AC50 (panel A, w/o Z-Score Correction ranking)
[4] = direct binding, ToxCast 2014 release, ref Filer et al. 2014, read-out: NovaScreen AC50 (panel A)
[5] = read-out: Tox21/NCGC AC50 (panel A)
[6] = ToxCast 2014 release, ref Filer et al. 2014, read-out: Attagene AC50 (panel B, with Z-Score Correction ranking)
[7] = read-out: Tox21/NCGC AC50 (panel B)
[8] = direct binding, ToxCast 2014 release, ref Filer et al. 2014, read-out: NovaScreen AC50 (panel B)

Structure (SMILES) | AC50 (PPARγ [1]; [3]) | AC50 (Human PPARγ; [4]) | AC50 (PPARγ [2]; [5]) | AC50 (PPARγ [1]; [6]) | AC50 (Human PPARγ; [8]) | other results
Oc1cc(Cl)ccc1Oc1ccc(Cl)cc1Cl [Triclosan] | 8.6 µM | 7.1 µM | 25.8 µM | – | – | Activation of GAL4-PPARγ (text) (GAL4-mPPARγ; COS7, 100 μM through 0.137 μM): inactive
CCCCC(O)(Cn1cncn1)c1ccc(Cl)cc1Cl (stereo not shown) [Hexaconazole] | 1.2 µM | 0.3 µM | 0.1 µM | – | – | –
CS(=O)(=O)c1cc(C(F)(F)F)ccc1C(=O)c1cnoc1C1CC1 [Isoxaflutole] | – | – | – | 10.4 µM | – | AC50 (PPARγ [2]; [7]): 26.4 µM
N#CSCSC#N [Methylene dithiocyanate] | – | – | – | – | – | Activation COS7 (result in words), ToxPi chemicals (GAL4-mPPARγ; Cos-7 transient transfection): Inactive; Adipogenesis 3T3-L1 (result in words) (3T3-L1 preadipocytes): Negative
O=C(O)c1c(Cl)ccc2cc(Cl)cnc12 [Quinclorac] | – | – | – | 0.03 µM | 0.0002 µM | –
COP(=O)(OC)C(O)C(Cl)(Cl)Cl (stereo not shown) [Trichlorfon] | 58.4 µM | – | 0.05 µM | – | – | –
CC(C)=CC1C(C(=O)OCN2C(=O)C3=C(CCCC3)C2=O)C1(C)C (stereo not shown) [Tetramethrin] | 0.02 µM | 0.3 µM | 21.6 µM | – | – | –
CC1=NNC(=O)N(/N=C/c2cccnc2)C1 [Pymetrozine] | – | – | – | – | – | Activation COS7 (result in words), ToxPi chemicals (GAL4-mPPARγ; Cos-7 transient transfection): Inactive; Adipogenesis 3T3-L1 (result in words) (3T3-L1 preadipocytes): Positive; Adipogenesis 3T3-L1 (result in words) (3T3-L1 preadipocytes; listed as pymetrozine): promoted adipogenesis
CCCCOC(=O)C(C)Oc1ccc(Oc2ccc(C(F)(F)F)cn2)cc1 (stereo not shown) [Fluazifop-butyl] | – | – | – | 2.8 µM | 0.7 µM | –
O=C(O)CCCOc1ccc(Cl)cc1Cl [2,4-DB] | – | – | – | 33.4 µM | – | AC50 (PPARγ [2]; [7]): 16.7 µM
O=C(O)c1cc(Oc2ccc(C(F)(F)F)cc2Cl)ccc1[N+](=O)[O-] [Acifluorfen] | – | – | – | 37.1 µM | 13.5 µM | –
Oc1ccccc1-c1ccccc1 [2-Phenylphenol] | 0.1 µM | 1.1 µM | – | 0.1 µM | 1.1 µM | –
O=c1ccc(=O)[nH][nH]1 [Maleic hydrazide] | – | – | – | – | – | Activation COS7 (result in words), ToxPi chemicals (GAL4-mPPARγ; Cos-7 transient transfection): Inactive; Adipogenesis 3T3-L1 (result in words) (3T3-L1 preadipocytes): Negative
COC(=O)NS(=O)(=O)c1ccc(N)cc1 [Asulam] | – | – | – | – | – | Activation COS7 (result in words), ToxPi chemicals (GAL4-mPPARγ; Cos-7 transient transfection): Inactive; Adipogenesis 3T3-L1 (result in words) (3T3-L1 preadipocytes): Negative
CCSC(=O)N1CCCCCC1 [Molinate] | – | – | – | 41.3 µM | 0.1 µM | –
CCCSP(=O)(OCC)SCCC [Ethoprop] | – | – | – | – | – | AC50 (PPARγ [1]; read-out: Attagene AC50 (panel B, with Z-Score Correction ranking)): 114 µM; AC50 (Human PPARγ; read-out: NovaScreen AC50 (panel B)): 3.9 µM
CCNc1nc(Cl)nc(NCC)n1 [Simazine] | – | – | – | 116 µM | 1.5 µM | –
CCNc1nc(NC(C)C)nc(SC)n1 [Ametryn] | 15.1 µM | 31.8 µM | 10.2 µM | – | – | –
N#Cc1nn(-c2c(Cl)cc(C(F)(F)F)cc2Cl)c(N)c1[S+]([O-])C(F)(F)F (stereo not shown) [Fipronil] | 39.3 µM | – | – | – | – | –
CCOP(=S)(OCC)SCCSCC [Disulfoton] | – | – | – | 81.8 µM | 1.6 µM | –
CCCCOC(=O)c1ccccc1C(=O)O [MBP] | – | – | – | 18.2 µM | 0.1 µM | –
CC(C)NC(=O)N1CC(=O)N(c2cc(Cl)cc(Cl)c2)C1=O [Iprodione] | 20.9 µM | 2.4 µM | 45.5 µM | 20.9 µM | 2.4 µM | AC50 (PPARγ [2]; [7]): 45.5 µM
COc1nn(CSP(=S)(OC)OC)c(=O)s1 [Methidathion] | 30.6 µM | 0.1 µM | – | 30.6 µM | 0.1 µM | –
CC(C)Oc1cccc(NC(=O)c2ccccc2C(F)(F)F)c1 [Flutolanil] | 8.5 µM | 10.3 µM | 34.1 µM | – | – | –
C=CCC1=C(C)[C@@H](OC(=O)[C@@H]2[C@@H](C=C(C)C)C2(C)C)CC1=O [S-Bioallethrin] | – | – | – | – | – | Activation COS7 (result in words), ToxCast PPARγ list (GAL4-mPPARγ; Cos-7 transient transfection, PPARγ activation or antagonism assays (Table 1, Table S6)): Inactive; AC50 (PPARγ [1]; PPARγ, NA = not active, ref Filer et al. 2014, read-out: ATG Agonist AC50, 2014 Release): 9.2 µM; AC50 (PPARγ [1]; PPARγ, NA = not active, ref Knudsen et al. 2011, read-out: ATG Agonist AC50, 2011 Release): 9.2 µM
Cc1cc(Cl)ccc1OCC(=O)O [MCPA] | 33.8 µM | 0.1 µM | 253 µM | 33.8 µM | 0.1 µM | AC50 (PPARγ [2]; [7]): 253 µM
O=C(O)COc1nc(Cl)c(Cl)cc1Cl [Triclopyr] | 54.7 µM | 2.1 µM | 41.5 µM | 54.7 µM | 2.1 µM | AC50 (PPARγ [2]; [7]): 41.5 µM
CCOP(=O)(NC(C)C)Oc1ccc(SC)c(C)c1 (stereo not shown) [Fenamiphos] | 35.1 µM | 21.2 µM | 14.7 µM | 35.1 µM | 21.2 µM | AC50 (PPARγ [2]; [7]): 14.7 µM
CCOc1nc(F)cc2nc(S(=O)(=O)Nc3c(Cl)cccc3Cl)nn12 [Diclosulam] | – | – | – | 26.3 µM | – | AC50 (PPARγ [2]; [7]): 2.9 µM
